Test results as given in patent US10131652B2, “Pyrimidinyloxy benzene derivatives as herbicides” (E. I. DU PONT DE NEMOURS AND COMPANY, priority 2014, dated 2018).
Like-named read-outs stand apart in the source and are kept apart here.

Assays:
Type in all cases: in vivo
[1] = tested on: winter wheat (Triticum aestivum); test: Test E pre-/postemergence plant response; conditions: post-emergence, Postemergence, scale 0 to 100, read-out: Plant response rating, Wheat, Winter; for plant injury at 16 g/ha: 16 g ai/ha; for plant injury at 31 g/ha: 31 g ai/ha; for plant injury at 62 g/ha: 62 g ai/ha; for plant injury at 125 g/ha: 125 g ai/ha
Text: (§1) Seeds of plant species selected from bluegrass (annual bluegrass, Poa annua), blackgrass (Alopecurus myosuroides), canarygrass (Phalaris minor), chickweed (common chickweed, Stellaria media), galium (catchweed bedstraw, Galium aparine), downy bromegrass (Bromus tectorum), field poppy (Papaver rhoeas), field violet (Viola arvensis), green foxtail (Setaria viridis), deadnettle (henbit deadnettle, Lamium amplexicaule), Italian ryegrass (Lolium multiflorum), kochia (Kochia scoparia), lambsquarters (Chenopodium album), oilseed rape (Brassica napus), pigweed (Amaranthus retroflexus), Russian thistle (Salsola iberica), chamomile (scentless chamomile, Matricaria inodora), speedwell (bird's-eye speedwell, Veronica persica), spring barley (Hordeum vulgare), spring wheat (Triticum aestivum), wild buckwheat (Polygonum convolvulus), wild mustard (Sinapis arvensis), wild oat (Avena fatua), wild radish (Raphanus raphanistrum), windgrass (Apera spica-venti), winter barley (Hordeum vulgare), and winter wheat (Triticum aestivum) were planted into a silt loam soil and treated preemergence with test chemicals formulated in a non-phytotoxic solvent mixture which included a surfactant. At the same time, these species were planted in pots containing Redi-Earth® planting medium (Scotts Company, 14111 Scottslawn Road, Marysville, Ohio 43041) comprising spaghnum peat moss, vermiculite, wetting agent and starter nutrients and treated with postemergence applications of the test chemicals formulated in the same manner. Plants ranged in height from 2 to 18 cm (1- to 4-leaf stage).
(§2) Treated plants and controls were maintained in a controlled growth environment for 7 to 21 days after which time all species were compared to controls and visually evaluated. Plant response ratings, summarized in Table E, are based on a scale of 0 to 100 where 0 is no effect and 100 is complete control. A dash (-) response means no test result.

[2] = tested on: blackgrass (Alopecurus myosuroides); test: Test E pre-/postemergence plant response; conditions: scale 0 to 100, read-out: Plant response rating, Blackgrass; for pest or weed control at 16 g/ha: 16 g ai/ha; for pest or weed control at 31 g/ha: 31 g ai/ha; for pest or weed control at 62 g/ha: 62 g ai/ha; for pest or weed control at 125 g/ha: 125 g ai/ha
Text: as §1, §2

[3] = tested on: canarygrass (Phalaris minor); test: Test E pre-/postemergence plant response; conditions: scale 0 to 100, read-out: Plant response rating, Canarygrass; for pest or weed control at 16 g/ha: 16 g ai/ha; for pest or weed control at 31 g/ha: 31 g ai/ha; for pest or weed control at 62 g/ha: 62 g ai/ha; for pest or weed control at 125 g/ha: 125 g ai/ha
Text: as §1, §2

[4] = tested on: bluegrass (annual bluegrass, Poa annua); test: Test E pre-/postemergence plant response; conditions: scale 0 to 100, read-out: Plant response rating, Bluegrass; for pest or weed control at 16 g/ha: 16 g ai/ha; for pest or weed control at 31 g/ha: 31 g ai/ha; for pest or weed control at 62 g/ha: 62 g ai/ha; for pest or weed control at 125 g/ha: 125 g ai/ha
Text: as §1, §2

[5] = tested on: spring barley (Hordeum vulgare); test: Test E pre-/postemergence plant response; conditions: post-emergence, Postemergence; for plant injury at 16 g/ha: 16 g ai/ha; for plant injury at 16 g/ha / plant injury at 31 g/ha / plant injury at 62 g/ha: scale 0 to 100, read-out: Plant response rating, Barley, Spring; for plant injury at 31 g/ha: 31 g ai/ha; for plant injury at 62 g/ha: 62 g ai/ha; for plant injury at 125 g/ha: 125 g ai/ha, scale 0 to 100 (0 no effect, 100 complete control), read-out: Plant response rating, Barley, Spring
Text: as §1, §2

[6] = tested on: waterhemp_RES2 (ALS & HPPD resistant common waterhemp, Amaranthus rudis); test: Test F postemergence plant response; conditions: scale 0 to 100
Procedure, shortened: (§3)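 Postemergence application to plants 2–18 cm tall (1- to 4-leaf stage), then held in greenhouse 14–21 days. Visual rating against untreated controls on a 0–100 scale (0 no effect, 100 complete control).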

[7] = tested on: waterhemp_RES1 (ALS & Triazine resistant common waterhemp, Amaranthus rudis); test: Test F postemergence plant response; conditions: scale 0 to 100
Procedure, shortened: as §3

[8] = tested on: large (Lg) crabgrass (Digitaria sanguinalis); test: Test B pre-/postemergence plant response; conditions: for pest or weed control at 500 g/ha: 500 g ai/ha; for pest or weed control at 1000 g/ha: 1000 g ai/ha
Procedure, shortened: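 Greenhouse pots, loam/sand soil; compound formulated with surfactant in non-phytotoxic solvent. Preemergence soil spray and postemergence spray at 1–2 leaf stage run simultaneously. Visual injury, 0–100, about 10 days post-treatment.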

Compound `FC(F)(F)c1cc(-c2ccccc2Oc2ncc(Cl)cn2)no1` [Compound 200, 5-chloro-2-[2-[5-(trifluoromethyl)-3-isoxazolyl]phenoxy]pyrimidine] has a plant injury at 16 g/ha [1] of 0%, a plant injury at 31 g/ha [1] of 5% and a plant injury at 62 g/ha [1] of 15%. The plant injury at 125 g/ha [1] was 25%, the pest or weed control at 16 g/ha ([2]; post-emergence, Postemergence) was 15% and the pest or weed control at 31 g/ha ([2]; post-emergence, Postemergence) was 35%. For the same compound, the pest or weed control at 62 g/ha ([2]; post-emergence, Postemergence) was 55%, the pest or weed control at 125 g/ha ([2]; post-emergence, Postemergence) was 75% and the pest or weed control at 16 g/ha ([2]; pre-emergence, Preemergence) was 25%. It also gave a pest or weed control at 31 g/ha ([2]; pre-emergence, Preemergence) of 75%, a pest or weed control at 62 g/ha ([2]; pre-emergence, Preemergence) of 90% and a pest or weed control at 125 g/ha ([2]; pre-emergence, Preemergence) of 100%. For the same compound, the pest or weed control at 16 g/ha ([3]; post-emergence, Postemergence) was 10%, the pest or weed control at 31 g/ha ([3]; post-emergence, Postemergence) was 35% and the pest or weed control at 62 g/ha ([3]; post-emergence, Postemergence) was 45%. It also gave a pest or weed control at 125 g/ha ([3]; post-emergence, Postemergence) of 60%, a pest or weed control at 16 g/ha ([3]; pre-emergence, Preemergence) of 10% and a pest or weed control at 31 g/ha ([3]; pre-emergence, Preemergence) of 55%. For the same compound, the pest or weed control at 62 g/ha ([3]; pre-emergence, Preemergence) was 100%, the pest or weed control at 125 g/ha ([3]; pre-emergence, Preemergence) was 100% and the pest or weed control at 16 g/ha ([4]; post-emergence, Postemergence) was 20%. For the same compound, the pest or weed control at 31 g/ha ([4]; post-emergence, Postemergence) was 35%, the pest or weed control at 62 g/ha ([4]; post-emergence, Postemergence) was 55% and the pest or weed control at 125 g/ha ([4]; post-emergence, Postemergence) was 70%. It also gave a pest or weed control at 16 g/ha ([4]; pre-emergence, Preemergence) of 20%, a pest or weed control at 31 g/ha ([4]; pre-emergence, Preemergence) of 70% and a pest or weed control at 62 g/ha ([4]; pre-emergence, Preemergence) of 95%. The pest or weed control at 125 g/ha ([4]; pre-emergence, Preemergence) was 100%, the plant injury at 16 g/ha [5] was 10% and the plant injury at 31 g/ha [5] was 15%. The plant injury at 62 g/ha [5] was 25%, the plant injury at 125 g/ha [5] was 35% and the “Plant response rating, Waterhemp_RES2” value ([6]; 8 g ai/ha Postemergence) was 75. The “Plant response rating, Waterhemp_RES2” value ([6]; 16 g ai/ha Postemergence) was 95, the “Plant response rating, Waterhemp_RES2” value ([6]; 31 g ai/ha Postemergence) was 95 and the “Plant response rating, Waterhemp_RES2” value ([6]; 62 g ai/ha Postemergence) was 98. The “Plant response rating, Waterhemp_RES2” value ([6]; 125 g ai/ha Postemergence) was 98, the “Plant response rating, Waterhemp_RES1” value ([7]; 8 g ai/ha Postemergence) was 70 and the “Plant response rating, Waterhemp_RES1” value ([7]; 16 g ai/ha Postemergence) was 75. The “Plant response rating, Waterhemp_RES1” value ([7]; 31 g ai/ha Postemergence) was 90, the “Plant response rating, Waterhemp_RES1” value ([7]; 62 g ai/ha Postemergence) was 95 and the “Plant response rating, Waterhemp_RES1” value ([7]; 125 g ai/ha Postemergence) was 98. For the same compound, the pest or weed control at 125 g/ha ([8]; Digitaria sanguinalis, post-emergence, 240 h, 125 g ai/ha, postemergence, 0 to 100 scale, 0 no effect, 100 complete control, read-out: Plant response rating, Crabgrass, Large) was 100%, the pest or weed control at 500 g/ha ([8]; Digitaria sanguinalis, post-emergence, 240 h, postemergence, 0 to 100 scale, 0 no effect, 100 complete control, read-out: Plant response rating, Crabgrass, Large) was 100% and the pest or weed control at 500 g/ha ([8]; Digitaria sanguinalis, pre-emergence, 240 h, Preemergence, 0 to 100 scale where 0 is no effect and 100 is complete control, read-out: Plant response rating, Crabgrass, Large) was 100%. The “Crabgrass, Large plant response rating” value ([8]; Preemergence, 125 g ai/ha, 0 to 100 scale (0 no effect, 100 complete control)) was 100.
With `FC(F)c1cc(-c2ccccc2Oc2ncc(Cl)cn2)no1` [Compound 35, 5-chloro-2-[2-[5-(difluoromethyl)-3-isoxazolyl]phenoxy]pyrimidine] the plant injury at 16 g/ha [1] was 5%, the plant injury at 31 g/ha [1] was 15% and the plant injury at 62 g/ha [1] was 25%. The plant injury at 125 g/ha [1] was 40%, the pest or weed control at 16 g/ha ([2]; post-emergence, Postemergence) was 20% and the pest or weed control at 31 g/ha ([2]; post-emergence, Postemergence) was 35%. For the same compound, the pest or weed control at 62 g/ha ([2]; post-emergence, Postemergence) was 55%, the pest or weed control at 125 g/ha ([2]; post-emergence, Postemergence) was 60% and the pest or weed control at 16 g/ha ([2]; pre-emergence, Preemergence) was 30%. The pest or weed control at 31 g/ha ([2]; pre-emergence, Preemergence) was 60%, the pest or weed control at 62 g/ha ([2]; pre-emergence, Preemergence) was 65% and the pest or weed control at 125 g/ha ([2]; pre-emergence, Preemergence) was 95%. The pest or weed control at 16 g/ha ([3]; post-emergence, Postemergence) was 10%, the pest or weed control at 31 g/ha ([3]; post-emergence, Postemergence) was 25% and the pest or weed control at 62 g/ha ([3]; post-emergence, Postemergence) was 55%. The pest or weed control at 125 g/ha ([3]; post-emergence, Postemergence) was 60%, the pest or weed control at 16 g/ha ([3]; pre-emergence, Preemergence) was 40% and the pest or weed control at 31 g/ha ([3]; pre-emergence, Preemergence) was 55%. It also gave a pest or weed control at 62 g/ha ([3]; pre-emergence, Preemergence) of 95%, a pest or weed control at 125 g/ha ([3]; pre-emergence, Preemergence) of 100% and a pest or weed control at 16 g/ha ([4]; post-emergence, Postemergence) of 15%. For the same compound, the pest or weed control at 31 g/ha ([4]; post-emergence, Postemergence) was 20%, the pest or weed control at 62 g/ha ([4]; post-emergence, Postemergence) was 40% and the pest or weed control at 125 g/ha ([4]; post-emergence, Postemergence) was 60%. It also gave a pest or weed control at 16 g/ha ([4]; pre-emergence, Preemergence) of 0%, a pest or weed control at 31 g/ha ([4]; pre-emergence, Preemergence) of 35% and a pest or weed control at 62 g/ha ([4]; pre-emergence, Preemergence) of 35%. For the same compound, the pest or weed control at 125 g/ha ([4]; pre-emergence, Preemergence) was 70%, the plant injury at 16 g/ha [5] was 5% and the plant injury at 31 g/ha [5] was 5%. The plant injury at 62 g/ha [5] was 10%, the plant injury at 125 g/ha [5] was 25% and the “Plant response rating, Waterhemp_RES2” value ([6]; 8 g ai/ha Postemergence) was 90. The “Plant response rating, Waterhemp_RES2” value ([6]; 16 g ai/ha Postemergence) was 90, the “Plant response rating, Waterhemp_RES2” value ([6]; 31 g ai/ha Postemergence) was 95 and the “Plant response rating, Waterhemp_RES2” value ([6]; 62 g ai/ha Postemergence) was 100. For the same compound, the “Plant response rating, Waterhemp_RES2” value ([6]; 125 g ai/ha Postemergence) was 100, the “Plant response rating, Waterhemp_RES1” value ([7]; 8 g ai/ha Postemergence) was 90 and the “Plant response rating, Waterhemp_RES1” value ([7]; 16 g ai/ha Postemergence) was 80. For the same compound, the “Plant response rating, Waterhemp_RES1” value ([7]; 31 g ai/ha Postemergence) was 90, the “Plant response rating, Waterhemp_RES1” value ([7]; 62 g ai/ha Postemergence) was 100 and the “Plant response rating, Waterhemp_RES1” value ([7]; 125 g ai/ha Postemergence) was 100. For the same compound, the pest or weed control at 1000 g/ha ([8]; Digitaria sanguinalis, post-emergence, 240 h, Postemergence, 0 to 100 scale (0 no effect, 100 complete control), read-out: Plant response rating, Crabgrass, Large) was 100% and the pest or weed control at 1000 g/ha ([8]; Digitaria sanguinalis, pre-emergence, 240 h, Preemergence, 0 to 100 scale (0 no effect, 100 complete control), read-out: Plant response rating, Crabgrass, Large) was 100%.
